According to the supplement of paper PMC11451515:

Key:
Test in all cases: AUC of viability dose-response curve (% viability x log10 dose units); higher = less sensitive
Details in all cases: 48 h
SEM cells = test system: SEM cells
How it was run: (§1)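 Seeding of medium-adapted leukemia cells was at 500 or 1000 cells/well in 1536-well plates, followed by 48 h at 37°C with library compounds in DMSO at 11 threefold doses from 47 μM to 0.79 nM. CellTiter-Glo One luminescence was normalised per plate to DMSO and cell-free wells and fitted as a four-parameter log-logistic function of log10 dose. Area under the curve was integrated by trapezoidal rule, with curves exceeding full viability scaled and curves failing quality control removed.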

P12-Ichikawa = test system: P12-Ichikawa
How it was run: as §1

NOMO1 = test system: NOMO1
How it was run: as §1

[1] = RPMI 5 mM glucose + 10% dialyzed FBS

Structure (SMILES)	AUC of viability dose-response curve (SEM cells; HPLM + 10% dialyzed FBS)	AUC of viability dose-response curve (SEM cells; RPMI 5 mM glucose + 10% FBS)	AUC of viability dose-response curve (SEM cells; [1])	AUC of viability dose-response curve (P12-Ichikawa; HPLM + 10% dialyzed FBS)	AUC of viability dose-response curve (P12-Ichikawa; RPMI 5 mM glucose + 10% FBS)	AUC of viability dose-response curve (P12-Ichikawa; [1])	AUC of viability dose-response curve (NOMO1; HPLM + 10% dialyzed FBS)	AUC of viability dose-response curve (NOMO1; RPMI 5 mM glucose + 10% FBS)	AUC of viability dose-response curve (NOMO1; [1])
O=c1[nH]c(=O)n(C2CCCO2)cc1F (stereo unspecified)	448	467	469	466	467	470	468	455	447
CCN1CCN(C(=O)Cc2ccc(Nc3ncc(F)c(Nc4ccc(C(=O)Nc5ccccc5Cl)cc4)n3)cc2)CC1	402	383	386	405	418	413	420	430	420
OC[C@H]1O[C@@H]2[C@@H](OC\3=N\C(=N)\C=C/[N@@]23)[C@@H]1O	277	264	223	248	241	251	348	374	344
Nc1ncnc2c1c(-c1cccc(OCc3ccccc3)c1)cn2C1CC(CN2CCCC2)C1 (stereo unspecified)	388	414	405	463	466	465	411	441	423
CCN(c1ccccc1)c1cc(NC)[n+](C)c(C)n1	464	466	475	469	457	470	456	471	468
CC1(C)C(N(O)C(=O)Nc2ccc(Cl)cc2)N(c2ccc(Cl)cc2)C(=O)N1CC(=O)N/N=C/C=C/c1ccc([N+](=O)[O-])o1 (stereo unspecified)	453	386	382	465	461	453	447	447	468
COc1cccc2c1CCCC2CCCN1CCN(C2CCCCC2)CC1 (stereo unspecified)	427	428	454	469	459	460	462	457	450
O=C(/C=C/c1ccc(O)cc1)c1ccc(O)cc1O	443	433	417	454	438	420	437	460	452
CC/1=C(/N2[C@H](SC1)[C@H](NC(=O)C(N)C3=CC=CC=C3)C2=O)C(O)=O (stereo partly specified)	437	464	467	461	472	473	457	459	464
COc1ncc(-c2ccc3c(Nc4cc(Oc5cc(F)cc(F)c5)cc(C(=O)O)c4)c([S+](=O)([O-])NC4CC4)cnc3c2)c(OC)n1	387	457	414	433	405	401	442	440	428
CNC(=O)C1=CC=C(C)C(=C1)N2C(=C/C(=C(/Br)C2=O)OCC3=C(F)C=C(F)C=C3)\C	461	465	455	474	466	464	465	456	466
C1CCN2C[C@H]3C[C@H](\C=C/4CCCN[C@@H]34)[C@H]2C1	465	449	457	456	457	457	462	447	452
CNC(=O)[C@H](CC/1=C/N=C\2/C=C\C\C=C12)NC(=O)[C@H](CC(C)C)CC(=O)NO	471	462	465	425	423	423	400	413	418
Cc1ccc2c(c1)c1c(n2CCc2ccc(C)nc2)CCN(C)C1	472	471	474	459	465	469	447	458	472
COC1=CC=C2/C3=N/CCN3\C(=N/C2=C1OC)NC(=O)C4=CC=CN=C4	452	419	422	457	427	439	427	462	402
CNC(=O)CN1CCC(Oc2cc3c(Nc4cccc(Cl)c4F)ncnc3cc2OC)CC1	457	469	469	364	356	374	320	302	325
COC1=CC=C(C=C1O)C/2=C/C(=O)C3=C(O2)C=C(O[C@@H]4O[C@H](CO[C@@H]5O[C@@H](C)[C@H](O)[C@@H](O)[C@H]5O)[C@@H](O)[C@H](O)[C@H]4O)C=C3O	461	453	466	461	463	470	456	460	477
C[C@](N)(Cc1ccc(O)c(O)c1)C(=O)O	395	417	432	427	416	398	391	387	405
CCOC(=O)\C1=C\[C@@H](OC(CC)CC)[C@H](NC(C)=O)[C@@H](N)C1	416	432	414	463	460	419	440	450	454
